Patent US20030032655A1, “Heme oxygenase-1 inducers or induction enhancers” (priority 2000, published 2003)

Tests used:
HO-1 protein = details: after injection of autologous arterial blood; compound i.v. 2 days; basilar arterial walls, day 2
Source text: The same animal model as in Example 1 was used to study changes in HO-1 protein expression level after the same treatment as shown in Example 1. The changes in protein expression level were detected by Coomassie staining and Western blotting, as described in the abovementioned reference. In this figure, the upper and lower panels show the results of Coomassie staining and Western blotting, respectively. Each of the lanes shown in FIG. 2 has the same definition as the corresponding sample in FIG. 1.

HO-1 mRNA = details: blood i.c. + compound i.v. 1 mg/kg/min continuously for 2 days; basilar arterial walls, day 2; vs blood i.c.+saline i.v.
Protocol: The preparation of rat cerebral vasospasm model and the determination of HO-1 mRNA expression level were performed according to a documented method (see The Journal of Clinical Investigation, Vol. 104, No. 1, July 1999).
Each single hemorrhage model was injected with 0.5 ml autologous arterial blood into its cisterna magna. […] After administration, the level of mRNA expressed in basilar arterial walls was determined on day 2 using a quantitative RT-PCR technique.
It is for this reason that the mRNA expression level was determined on day 2.
All data were expressed as mean±SEM. The expression level of HO-2 was used as a denominator in calculating the ratio because the expression level of HO-2 was not assumed to change appreciably in this model and therefore, when used as a denominator, would enable changes in HO-1 expression level to be objectively evaluated while ignoring individual differences. […] The data were statistically processed according to variance analysis. A single asterisk (*) denotes a statistically significant difference from “saline i.c.” at p<0.05 level and two asterisks (**) denote a statistically significant difference from “blood i.c.+saline i.v.” at p<0.01 level.

[1] = system: delayed cerebral vasospasm
Protocol: The same model as in Example 1 was used to study changes over time in basilar artery diameter. The determination of basilar artery diameter was performed as described in the above-mentioned reference. That is, the diameter was measured angiographically on days 1 to 7 and expressed as a % change from the original diameter (% change before treatment was set to 0).
All data were expressed as mean±SEM.
The data was statistically processed such that intragroup comparison was performed by paired t-test and intergroup comparison was performed according to variance analysis.

Compound: CC(CNC(=O)c1cccnc1)NC(=O)c1cccnc1 (stereo not shown) [1,2-bis(nicotinamide)propane]
- HO-1 protein induction (HO-1 protein): causes or enhances HO-1 protein induction
- HO-1 mRNA expression level (HO-1/HO-2 ratio) (HO-1 mRNA): significant increase in HO-1 mRNA expression level
- delayed cerebral vasospasm (% change in basilar artery diameter) ([1]; blood i.c. + compound i.v. continuously for 7 days, angiography days 1 to 7): significant amelioration of delayed cerebral vasospasm
- diameter of cerebral blood vessels in the absence of hemorrhage ([1]; saline i.c. + compound i.v. continuously for 7 days): not affected
